Assay results as given in article PMC6660996 (Bioorganic & medicinal chemistry, 2019).

tested on: T. gondii (tachyzoites); assay: not given; conditions: tachyzoites proliferation; cited from earlier work

SMILES | in vitro activity against T. gondii ED50 [µM]
CCCCCCCCCCS(=O)(=O)CC(P(=O)(O)O)P(=O)(O)O [Compound 18] | 0.1

same assay, conditions: tachyzoites; already published data; ref 47-55 (see b12); cited from earlier work

SMILES | T. gondii growth ED50 [µM]
CCCCCCCCC(F)(P(=O)(O)O)P(=O)(O)O [Compound 10] | 2.67
CCCCCCCCCC(F)(P(=O)(O)O)P(=O)(O)O [Compound 11] | > 10.0
CCCCCCNCC(P(=O)(O)O)P(=O)(O)O [Compound 12] | 9.4
CCCCCCCNCC(P(=O)(O)O)P(=O)(O)O [Compound 13] | > 50.0
CCCCCCCCCCCCNCC(P(=O)(O)O)P(=O)(O)O [Compound 14] | 6.23
CCCCCCCCNCC(O)(P(=O)(O)O)P(=O)(O)O [Compound 15] | 2.0
CCCCCCCSCC(P(=O)(O)O)P(=O)(O)O [Compound 16] | 0.97
CCCCCCCCCCSCC(P(=O)(O)O)P(=O)(O)O [Compound 17] | 1.8
CCCCCCCCCCS(=O)(=O)CC(P(=O)(O)O)P(=O)(O)O [Compound 18] | 0.11
CCCCCCCC[S+](C)CC(P(=O)(O)O)P(=O)(O)O.F[B-](F)(F)F (stereo not shown) [Compound 19] | 7.0

tested on: T. gondii (tachyzoites); assay: T. gondii tachyzoites assays; format: cell-based; conditions: Toxoplasma gondii, read-out: T. gondii cells ED50, tachyzoites; Table 3

SMILES | IC50 [µM]
CCCCCCCCCCCS(=O)(=O)CC(P(=O)(O)O)P(=O)(O)O [Compound 56, 1-[(n-Undecylsulfonyl)ethyl]-1,1-biphosphonic acid] | 0.53

tested on: hypervirulent RH strain of T. gondii; assay: not given; conditions: cited from earlier work

SMILES | effect in combination with statins in in vivo assays
CCCCCCCSCC(P(=O)(O)O)P(=O)(O)O [Compound 16] | strong synergistic effect

tested on: T. cruzi (amastigotes); assay: T. cruzi amastigote assays; format: cell-based; conditions: Trypanosoma cruzi, read-out: T. cruzi cells ED50

SMILES | IC50 [µM]
CCCNC(P(=O)(O)O)P(=O)(O)O [Compound 21, 1-n-Propylaminomethyl-1,1-bisphosphonic acid] | > 10
CCCCNC(P(=O)(O)O)P(=O)(O)O [Compound 22, 1-n-Butylaminomethyl-1,1-bisphosphonic acid] | > 10

same assay, conditions: Trypanosoma cruzi, read-out: T. cruzi cells ED50, amastigotes; Table 3

SMILES | IC50 [µM]
CCCCCNC(P(=O)(O)O)P(=O)(O)O [Compound 23, 1-n-Pentylaminomethyl-1,1-bisphosphonic acid] | > 10
CCCCCCNC(P(=O)(O)O)P(=O)(O)O [Compound 24, 1-n-Hexylaminomethyl-1,1-bisphosphonic acid] | > 10
CCCCCCCNC(P(=O)(O)O)P(=O)(O)O [Compound 25, 1-n-Heptylaminomethyl-1,1-bisphosphonic acid] | > 10
CCCCCCCCNC(P(=O)(O)O)P(=O)(O)O [Compound 26, 1-n-Octylaminomethyl-1,1-bisphosphonic acid] | > 10
CCCCCCCCCNC(P(=O)(O)O)P(=O)(O)O [Compound 27, 1-n-Nonylaminomethyl-1,1-bisphosphonic acid] | > 10
CCCCCCCCCCNC(P(=O)(O)O)P(=O)(O)O [Compound 28, 1-n-Decylaminomethyl-1,1-bisphosphonic acid] | 5.3
O=P(O)(O)C(NC1CCCC1)P(=O)(O)O [Compound 30, (Cyclopentylamino)methyl-1,1-bisphosphonic acid] | > 10
O=P(O)(O)C(NC1CCCCC1)P(=O)(O)O [Compound 31, (Cyclohexylamino)methyl-1,1-bisphosphonic acid] | > 10
O=P(O)(O)C(NC1CCCCCC1)P(=O)(O)O [Compound 32, (Cycloheptylamino)methyl-1,1-bisphosphonic acid] | > 10
O=P(O)(O)C(N1CCCCC1)P(=O)(O)O [Compound 33, (Piperidin-1-yl)methyl-1,1-bisphosphonic acid] | > 10
O=P(O)(O)C(CNC1CCCC1)P(=O)(O)O [Compound 47, 1-[(Cyclopentylamino)ethyl] 1,1-bisphosphonic acid] | > 10
O=P(O)(O)C(CNC1CCCCCC1)P(=O)(O)O [Compound 48, 1-[(Cycloheptylamino)ethyl] 1,1-bisphosphonic acid] | > 10
CC1CCC(NCC(P(=O)(O)O)P(=O)(O)O)CC1 (stereo not shown) [Compound 49, 1-[(4-methylcyclohexylamino)ethyl] 1,1-bisphosphonic acid] | > 10
